# In US5807745A, “Method of inhibiting PADGEM-mediated or ELAM-1-mediated leukocyte adhesion using an inhibitor comprising a Le^x core component” (New England Medical Center Hospitals, Inc., priority 1995, dated 1998):
# Columns and labels:
# [1] = tested on: adherence of activated platelets to neutrophils (PADGEM-mediated); test: Phase-contrast cell adhesion assay: thrombin-activated platelets with neutrophils; type: cell-based, human; conditions: LNF isomers, FIG. 6
# Protocol: Platelets were isolated by gel filtration from fresh anticoagulated blood obtained from normal human donors (Hsu-Lin et al., J. Biol. Chem., 259: 9121-9126 (1984)). Activated platelets were prepared by incubating cells without stirring for 20 minutes at 22° C. with thrombin at a final concentration of 0.25 U/ml. Fresh platelets were used in cell adhesion assays within 30 minutes of preparation.
# Neutrophils were prepared by the method of English and Anderson (J. Immunol. Method, 5: 249-252 (1974)). The neutrophil preparations were greater than 95% pure by light microscopy. Monocytes were prepared by washing the mono-nuclear leukocyte fraction twice with human serum-5 mM EDTA and incubating the cells in RPMI 1640--10% fetal calf serum in sterile […] dishes for 2 hours at 37° C. The dishes were washed three times with PBS at 37° C. to remove nonadherent cells. PBS at 0° C. was added, and the cells were incubated at 4° C. for 1 hour. Adherent cells were gently detached with a rubber policeman, washed in PBS, and resuspended in RPMI 1640--1% fetal calf serum. Lymphocytes were obtained by washing the nonadherent cells with PBS and resuspending these cells in RPMI 1640--1% fetal calf serum. The purity of these preparations was established to be greater than 90% by light microscopy using Wright esterase and nonspecific esterase stains.
# Twenty microliters of platelet suspension (2×10^8 /ml) was mixed with 20 μl of cell suspension (2×10^6 /ml) and incubated for 20 minutes at 22° C. in a microfuge tube. An aliquot of the cell suspension was then in a Neubauer chamber and evaluated by light microscropy using an Olympus model BH-2 microscope. Three samples from each assay were evaluated by counting 200 cells and scoring the percentage of cells with two or more adherent platelets (Jungi et al., Blood 67: 629-636 (1986)). Antibody inhibition studies were performed by preincubating cells (20 μl; 3×10^6 /ml) with 20 μl of antibody solution for 20 minutes at 22° C. Subsequently, 20 μl of platelet suspension was added, and the mixture was incubated for 20 minutes at 22° C. Samples were analyzed as above.
# To identify the PADGEM recognition site on leukocytes that mediates the binding of activated platelets, monoclonal antibodies directed at various antigens on the surface of monocytes and neutrophils were tested for their ability to inhibit the interaction of these cells with activated platelets, using the phase-contrast cell adhesion assay described in Example 2 (FIG. 1 and FIG. 2). The antibodies were raised against various leukocytes and myeloid cell lines and are directed at leukocyte antigens. […] The percentage of cells displaying two or more adherent platelets was determined as described in Example 2.
# [2] = tested on: binding of HL60 cells to COS/PADGEM cells; test: COS cell-PADGEM adhesion assay with labelled HL60 cells; type: cell-based, human
# Protocol: COS cells (1×10^5) were transfected with 40 μg of the resulting PADGEM expression vector by calcium phosphate precipitation. Coverslips (12×12 mm) were added to each culture. After 48 hours of growth in DMEM--10% fetal calf serum, the COS cells were confluent.
# HL60 cells (1×10^7), maintained in culture, were washed and resuspended in 0.5 ml of serum-free RPMI 1640. The cells were labeled with 270 μCi of ^111 In oxine (Callow et al., Arch. Surg., 117: 1447-1455 (1982)) and 10 μg of bis-carboxyethyl-carboxyfluorescein (Kolber et al., J. Immunol. Meth., 108: 255-264 (1988)) by incubation at 37° C. for 30 minutes. After washing with RPMI 1640--1% bovine serum albumin, the cells (1×10^6) were incubated with the coverslips containing confluent COS cell transfectants, in the presence or absence of LNF isomers, for 20 minutes at 37° C. The coverslips were washed with RPMI 1640, and duplicate coverslips were assayed for ^111 In activity. Alternatively, samples were evaluated for HL60 cell adherence by fluorescence and phase-contrast microscopy using a Zeiss Axioscope microscope in a blind assay. Inhibition of the binding of COS/PADGEM cells to U937 cells by the antibody 80H5 was performed in experiments identical to the procedure described above.
# The results of a COS cell-PADGEM adhesion assay, in which the binding of ^111 In and bis-carboxyethyl-carboxyfluorescein-lableled HL60 cells to COS/PADGEM cells was monitored by assaying ^111 In activity (Example 2), are shown in FIG. 7. […] The inhibitory effect of LNF II was more apparent when the LNF to PADGEM ratio was high. […] It is possible that minor contamination of the LNF II preparation with LNF III can account for the inhibitory activity observed.
# The inhibitory effects of LNF I, II, and III on the interaction of HL60 cells and COS/PADGEM was also studied morphologically in a blind assay. In these experiments, the binding of fluorescently labeled HL60 cells to COS/PADGEM cells was scored (Example 2).
# cell viability = test: Cell viability by trypan blue exclusion; type: cell-based; conditions: trypan blue exclusion method
# [3] = tested on: glycoprotein IIb-IIIa dependent platelet aggregation; test: ADP-induced platelet aggregation; type: cell-based, human; conditions: specificity control
# From the text: To address the possibility of a nonspecific effect of LNF III on cell-cell interaction involving platelets, the effect of LNF III on ADP-induced platelet aggregation was examined.
# Mel-14 = conditions: literature report; cited from earlier work
Compound,"IC50 ([1]; Homo sapiens, read-out: half-maximal inhibition of the adherence of activated platelets to neutrophils)",inhibitory activity on adherence of activated platelets to neutrophils ([1]; direct cell adhesion assay),"inhibition of binding of radiolabeled HL60 cells to COS/PADGEM cells ([2]; 111In activity, FIG. 7)",inhibition of binding of fluorescently labeled HL60 cells to COS/PADGEM cells ([2]; scored morphologically in a blind assay),cell viability (cell viability),effect on ADP-induced platelet aggregation [3],inhibition of Mel-14-mediated lymphocyte-endothelial cell interaction (Mel-14)
"CC(=O)N[C@H]1[C@H](O[C@H]2[C@@H](O)[C@@H](CO)O[C@@H](O[C@H]3[C@H](O)[C@@H](O)C(O)O[C@@H]3CO)[C@@H]2O)O[C@H](CO)[C@@H](O[C@@H]2O[C@H](CO)[C@H](O)[C@H](O)[C@H]2O)[C@@H]1O[C@@H]1O[C@@H](C)[C@@H](O)[C@@H](O)[C@@H]1O (stereo partly shown) [LNF III, Galβ1-4(Fucα1-3)GlcNAcβ1-3Galβ1-4Glc]",~50 µg/mL,effective inhibitor,significantly inhibited,significant inhibitory activity,did not alter cell viability,equivalent in the presence or absence of LNF III,–
O=P(O)(O)OC[C@H]1OC(O)[C@@H](O)[C@@H](O)[C@@H]1O (stereo partly shown) [mannose 6-phosphate],–,–,–,–,–,–,inhibit
